Key:
Type in all cases: in vivo, human
multiple sclerosis [1] = assay: Expanded Disability Status Scale (EDSS)
Description: (§1) Patients also underwent mammograms before and after the study.
The Expanded Disability Status Scale (EDSS) is a standard composite disability score used in MS trials. Higher scores indicate worse disability. This composite covers a variety of disabilities (including ambulation, vision, cognition, coordination, etc.), but scoring is not linear, and the composite score is understood to be principally an indicator of the level of disability in ambulation.

multiple sclerosis [2] = assay: Paced Auditory Serial Addition Test (PASAT) cognitive disability assessment; conditions: month 12 to month 24
Description: as §1
Next it was shown that the improvement in PASAT cognitive test scores was sustained when subjects were followed for the entire 24 month period, p=0.02 (FIG. 3).

multiple sclerosis [3] = assay: Timed 25-foot walk test; conditions: between-group difference p=0.02
Description: as §1
Another clinical disability measure with treatment effects was the timed 25-foot walk test. This test measures how many seconds it takes to walk 25 feet, with higher scores indicating worse disability. […] This beneficial effect of estriol treatment on 25 foot walking times is consistent with the beneficial effect of estriol treatment on EDSS scores since the latter is weighted toward being an indicator of ambulation.

[4] = Safety and tolerability in randomized, double-blind, placebo-controlled clinical trial (gynecological outcomes, mammograms)
Description: as §1
Baseline characteristics were similar in both patient groups.

multiple sclerosis [5] = assay: Brain MRI gadolinium enhancing lesions; conditions: at month 12 compared to month 0 baseline, p=0.14
Description: as §1
Brain MRI is used extensively in MS as a surrogate marker for clinical effects. Brain white matter gadolinium enhancing lesions are a biomarker for relapses.

[6] = 24-month treatment, Copaxone with estriol or placebo

glatiramer acetate [Copaxone® plus placebo]
Change in EDSS scores (multiple sclerosis [1]; 24 months (FIG. 4)): no change | EDSS scores over 24 months, slope (multiple sclerosis [1]; FIG. 4, p=0.06 estriol group, p=0.90 placebo group): −0.01 | PASAT scores after 12 months to end of study (multiple sclerosis [2]): began to show improved PASAT scores | Change of walk time in timed 25-foot walk test (multiple sclerosis [3]): significantly increased | Abnormal proliferation in uterine endometrial biopsies [4, 6]: no | Breast - Fibrocystic breast disease on clinical exam [4, 6]: 4 subjects | Uterine endometrial biopsies (exams) [4, 6]: 10 exams | Uterine endometrial thickness > 8 mm on ultrasound (subjects) [4, 6]: 27 subjects | Mammograms ([4]; before and after the study): No breast | Uterine fibroids on ultrasound ([4]; women with MS, 24-month treatment, Copaxone 20 mg/day with oral estriol 8 mg/day or placebo, norethindrone 0.7 mg/day for 14 days every three months): 8 subjects | Reduction in number of subjects with brain MRI scans positive for enhancing lesions (multiple sclerosis [5]): 22%

Source: patent US10369158B2, “Pharmaceutical packaging for estriol therapy” (The Regents of the University of California, priority 2014, dated 2019)
